Earlier results, collected in patent publication US20100120733A1, “STEROID MODULATORS OF GLUCOCORTICOID RECEPTOR” (AUSPEX PHARMACEUTICALS, INC., priority 2008, published 2010).

Conditions: pooled data

Compound | elimination half-life
CC(C)C(=O)OCC(=O)[C@@]12O[C@H](C3CCCCC3)O[C@@H]1C[C@H]1[C@@H]3CCC4=CC(=O)C=C[C@]4(C)[C@H]3[C@@H](O)C[C@@]12C [ciclesonide, 16,17-[[(R)-cyclohexylmethylene]bis(oxy)]-11-hydroxy-21-(2-methyl-1-oxopropoxy)-(11-beta,16-alpha)-pregna-1,4-diene-3,20-dione] | 0.71 h
C[C@]12C=CC(=O)C=C1CC[C@@H]1[C@@H]2[C@@H](O)C[C@@]2(C)[C@H]1C[C@H]1O[C@@H](C3CCCCC3)O[C@]12C(=O)CO [des-CIC, desisobutyryl-ciclesonide] | 3.5 h
